Measurements reported in patent US20220174947A1, “ANTIMICROBIAL MIXTURE CONTAINING 4-(3-ETHOXY-4-HYDROXYPHENYL)BUTAN-2-ONE AND AN ALCOHOL COMPOUND, AND COSMETIC COMPOSITION CONTAINING SAME” (L'OREAL, priority 2018, published 2022).

Assays:
[1] = system: Aspergillus niger ATCC 6275; experiment: Synergistic antimicrobial activity as MIC, 96-well microplate, optical density at 620 nm; assay type: cell-based; details: for % MIC of A alone: Aspergillus niger, growth <= 25%
Source text: FIC Index=(MIC of A with B/MIC of A)+(MIC of B with A/MIC of B [Math. 1]
with: • MIC of A with B: minimum concentration of product A in the combination A+B which makes it possible to obtain an inhibitory effect; • MIC of B with A: minimum concentration of product B in the combination A+B which makes it possible to obtain an inhibitory effect; • MIC of A: minimum inhibitory concentration of product A alone; • MIC of B: minimum inhibitory concentration of product B alone. This formula was described for the first time in the article by F. C. Kull, P. C. Eisman, H. D. Sylwestrowka, and R. L. Mayer, Applied Microbiology 9:538-541, 1961.
The microbial strain Aspergillus niger ATCC 6275, and a double-concentration Sabouraud broth liquid culture medium supplemented with polyoxyethylenated (20 OE) sorbitan monopalmitate (Tween 40 from Croda) and Phytagel© BioReagent were used (i.e. a mixture of 5 g of Phytagel+0.6 g of Tween 40+60 g of Sabouraud broth).
A 96-well microplate at an incubation temperature of 32.5° C. is used.
The incubation time of the microplate is: • from 24 to 30 h under aerobic conditions for microbial Aspergillus niger ATCC 6275; • from 18 to 24 h under aerobic conditions for Candida albicans ATCC 10231, Pseudomonas aeruginosa ATCC 9027 and Staphylococcus aureus ATCC 6538; • from 24 to 48 h under aerobic conditions for Enterococcus faecalis ATCC 33186.
For each compound: A=4-(3-ethoxy-4-hydroxyphenyl) butan-2-one compound B=alcohol compound A 10% (weight/volume) stock solution was prepared by mixing 1 g of compound in 9 ml of aqueous 1% agar solution. Successive dilutions were made with the 1% agar solution.
50 μl of each of the daughter solutions obtained containing compound A or B are added to the microplate wells. 100 μl of Sabouraud liquid nutrient broth inoculated at double concentration with the Aspergillus niger strain and 50 μl of aqueous 1% agar solution are also added thereto.
50 μl of each of the daughter solutions obtained containing compound A and 50 μl of each of the daughter solutions obtained containing compound B are added to the microplate wells. 100 μl of Sabouraud liquid nutrient broth inoculated at double concentration with the strain Aspergillus niger are also added thereto.
A positive microbial growth control was also prepared. The positive microbial growth control corresponds to a mixture of 100 μl of aqueous 1% agar solution with 100 μl of Sabouraud liquid nutrient broth inoculated at double concentration with the strain Aspergillus niger in the absence of compounds A and B.
An absorbance control was performed in parallel on compounds A and B alone. This control corresponds to 100 μl of double concentration sterile Sabouraud liquid nutrient broth+100 μl of double concentration compound A or B.
In the three cases (absorbance control, growth control and test), the final volume present in each of the microplate wells is 200 μl.
In the two cases (test and control), the inoculum represents the concentration of the Aspergillus niger strain present in the final volume of the wells (200 μl) and is between 2 and 6×10^5 cfu/ml of Aspergillus niger.

[2] = system: Pseudomonas aeruginosa ATCC 9027; experiment: as above; assay type: cell-based; details: for % MIC of A alone: Pseudomonas aeruginosa, growth <= 25%
Source text: with: • MIC of A with B: minimum concentration of product A in the combination A+B which makes it possible to obtain an inhibitory effect; • MIC of B with A: minimum concentration of product B in the combination A+B which makes it possible to obtain an inhibitory effect; • MIC of A: minimum inhibitory concentration of product A alone; • MIC of B: minimum inhibitory concentration of product B alone. This formula was described for the first time in the article by F. C. Kull, […], and R. L. Mayer, Applied Microbiology 9:538-541, 1961. […] When the FIC index value is less than or equal to 1, it is considered that the combination of test compounds has a synergistic effect. The microbial strain Pseudomonas aeruginosa ATCC 9027 and a double-concentration nutrient broth liquid culture medium were used. A 96-well microplate at an incubation temperature of 32.5° C. is used. […] For each compound: […] 50 μl of each of the daughter solutions obtained containing compound A and 50 μl of each of the daughter solutions obtained containing compound B are added to the microplate wells. 100 μl of Sabouraud liquid nutrient broth inoculated at double concentration with the strain Aspergillus niger are also added thereto. A positive microbial growth control was also prepared. […] An absorbance control was performed in parallel on compounds A and B alone. This control corresponds to 100 μl of double concentration sterile Sabouraud liquid nutrient broth+100 μl of double concentration compound A or B. […] The test as described above (tests, absorbance control and growth control) was performed again to test the combination A+B on the following strains Enterococcus faecalis, Staphylococcus aureus, Pseudomonas aeruginosa, Candida albicans, where appropriate.

- % MIC of A alone ([1]; Example 1): 0.1%
- % MIC of A alone ([1]; Example 3): 0.1%
- % MIC of A alone ([1]; Example 5): 0.1%
- % MIC of A alone ([2]; Example 4): 1%
- % MIC of A alone ([2]; Example 6): 1%
SMILES: CCOc1cc(CCC(C)=O)ccc1O [A, 4-(3-ethoxy-4-hydroxyphenyl)butan-2-one]
- microbial growth percentage ([1]; 0.025 A, 0 B1 weight %): 82%
- microbial growth percentage ([1]; 0.025 A, 0 B3 weight %): 45%
- microbial growth percentage ([1]; 0.025 A, 0 B5 weight %): 55%
- microbial growth percentage ([1]; 0.05 A, 0 B1 weight %): 43%
- microbial growth percentage ([1]; 0.05 A, 0 B3 weight %): 35%
- microbial growth percentage ([1]; 0.05 A, 0 B5 weight %): 32%
- microbial growth percentage ([1]; 0.1 A, 0 B1 weight %): 5%
- microbial growth percentage ([1]; 0.1 A, 0 B3 weight %): 14%
- microbial growth percentage ([1]; 0.1 A, 0 B5 weight %): 16%
- microbial growth percentage ([2]; 0.0625 A, 0 B4 weight %): 63%
- microbial growth percentage ([2]; 0.0625 A, 0 B6 weight %): 80%
- microbial growth percentage ([2]; 0.125 A, 0 B4 weight %): 60%
- microbial growth percentage ([2]; 0.125 A, 0 B6 weight %): 63%
- microbial growth percentage ([2]; 0.25 A, 0 B4 weight %): 64%
- microbial growth percentage ([2]; 0.25 A, 0 B6 weight %): 56%
- microbial growth percentage ([2]; 0.5 A, 0 B4 weight %): 62%
- microbial growth percentage ([2]; 0.5 A, 0 B6 weight %): 61%
- microbial growth percentage ([2]; 1 A, 0 B4 weight %): 7%
- microbial growth percentage ([2]; 1 A, 0 B6 weight %): −17%
